The values below are quoted from earlier work in paper PMC7285658 (Chemical communications (Cambridge, England), 2020).

For the series, the target named is RSK1/2. The settings on record: selective inhibitor of RSK1/2.

Regarding `CC(=O)O[C@@H]1[C@@H](OC(C)=O)[C@@H](O)[C@H](Oc2c(-c3ccc(O)cc3)oc3cc(O)cc(O)c3c2=O)O[C@H]1C` [SL0101], the inhibition constant (Ki) was about 1000 nM.
